Earlier results on two compounds are cited in paper PMC3923778 (PLoS Currents, 2014).

This series deals with HD mouse models. Details: method as in PMID 19281846, PMID 20923867, PMID 19291221, PMID 17184995. As to conditions: ref [5], [7], [14], [15]; cited from earlier work.

Turning to TP-10, the “disease progression in HD mouse models” value is given as “significantly delay disease progression”.
As to `COc1ccc(C2CNC(=O)C2)cc1OC1CCCC1` (centres unmarked) [rolipram], the “disease progression in HD mouse models” value is listed as “significantly delay disease progression”.
